Laboratory results reported in ChEMBL document CHEMBL1147056, “Potentiation of mammary cancer inhibition by combination of antagonists of growth hormone-releasing hormone with docetaxel” (Proc Natl Acad Sci U S A, 2007).
Blank lines part the entries; values can stand above or below the molecule they belong to.

Key:
MX1 [1] = test: Antitumor activity against human MX1 cells xenografted athymic nude Ncr nu/nu mouse assessed as inhibition of tumor volume at 20 mg/kg, ip after 3 weeks; format: functional; conditions: 504 h, route intraperitoneal
[2] = target: T1, Growth hormone-releasing hormone receptor (Homo sapiens, UniProt Q02643); test: Displacement of [125I]JV1-42 from GHRH receptor expressed in human MX1 cells; format: cell-based
T1 sequence (Q02643 whole entry): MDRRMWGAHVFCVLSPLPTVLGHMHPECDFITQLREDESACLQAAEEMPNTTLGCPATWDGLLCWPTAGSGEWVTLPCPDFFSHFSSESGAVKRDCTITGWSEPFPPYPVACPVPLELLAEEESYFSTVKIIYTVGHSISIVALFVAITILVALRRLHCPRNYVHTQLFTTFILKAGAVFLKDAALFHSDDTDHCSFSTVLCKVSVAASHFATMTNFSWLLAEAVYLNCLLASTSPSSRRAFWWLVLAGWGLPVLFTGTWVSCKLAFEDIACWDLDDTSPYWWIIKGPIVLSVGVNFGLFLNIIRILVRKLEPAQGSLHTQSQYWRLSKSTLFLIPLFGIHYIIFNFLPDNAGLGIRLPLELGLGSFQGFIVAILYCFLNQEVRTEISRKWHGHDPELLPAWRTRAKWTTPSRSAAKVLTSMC

Mus musculus [3] = test: Toxicity in human MX1 cells xenografted athymic nude Ncr nu/nu mouse assessed as body weight at 20 mg/kg, ip after 24 days relative to control; format: organism-based; parameters: dose 20 mg/kg, route intraperitoneal; conditions: in vivo, 576 h
[4] = target: Epidermal growth factor receptor (Homo sapiens, UniProt P00533); test: Displacement of radiolabeled EGF from EGF receptor expressed in human MX1 cells; format: cell-based
Sequence of Epidermal growth factor receptor (P00533 whole entry): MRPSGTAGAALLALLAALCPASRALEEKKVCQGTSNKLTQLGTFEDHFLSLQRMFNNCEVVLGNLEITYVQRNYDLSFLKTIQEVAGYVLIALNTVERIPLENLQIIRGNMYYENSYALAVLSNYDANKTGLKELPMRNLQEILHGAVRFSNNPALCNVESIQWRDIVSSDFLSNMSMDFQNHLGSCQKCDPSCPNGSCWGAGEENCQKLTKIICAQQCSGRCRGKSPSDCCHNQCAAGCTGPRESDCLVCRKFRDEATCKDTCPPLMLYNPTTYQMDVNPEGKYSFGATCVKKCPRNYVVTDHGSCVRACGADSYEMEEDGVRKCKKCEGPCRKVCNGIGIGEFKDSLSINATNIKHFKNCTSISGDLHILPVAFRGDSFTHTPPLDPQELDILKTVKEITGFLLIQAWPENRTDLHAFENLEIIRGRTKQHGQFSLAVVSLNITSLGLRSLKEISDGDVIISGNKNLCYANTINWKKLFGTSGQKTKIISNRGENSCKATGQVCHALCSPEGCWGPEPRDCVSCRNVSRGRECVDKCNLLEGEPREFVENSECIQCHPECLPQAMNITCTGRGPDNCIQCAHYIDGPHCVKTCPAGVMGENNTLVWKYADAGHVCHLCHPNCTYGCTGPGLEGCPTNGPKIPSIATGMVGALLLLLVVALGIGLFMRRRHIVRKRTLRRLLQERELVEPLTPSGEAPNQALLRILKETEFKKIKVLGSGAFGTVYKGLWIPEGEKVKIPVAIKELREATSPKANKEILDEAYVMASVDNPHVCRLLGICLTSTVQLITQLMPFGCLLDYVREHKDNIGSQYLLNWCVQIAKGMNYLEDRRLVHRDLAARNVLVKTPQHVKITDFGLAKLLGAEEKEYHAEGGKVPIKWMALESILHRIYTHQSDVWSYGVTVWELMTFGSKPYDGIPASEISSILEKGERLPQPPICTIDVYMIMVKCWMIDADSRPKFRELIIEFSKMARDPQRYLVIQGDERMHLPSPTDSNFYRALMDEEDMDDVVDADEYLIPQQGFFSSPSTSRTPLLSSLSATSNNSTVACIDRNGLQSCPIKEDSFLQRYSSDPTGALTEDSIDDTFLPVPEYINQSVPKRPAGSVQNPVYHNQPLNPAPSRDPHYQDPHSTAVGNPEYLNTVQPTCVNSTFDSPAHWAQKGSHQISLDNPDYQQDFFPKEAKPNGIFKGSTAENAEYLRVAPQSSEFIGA

MX1 [5] = test: Antitumor activity against human MX1 cells xenografted athymic nude Ncr nu/nu mouse assessed as inhibition of tumor volume at 20 mg/kg, ip after 8 days; format: functional; conditions: 192 h, route intraperitoneal
MX1 [6] = test: Antitumor activity against human MX1 cells xenografted athymic nude Ncr nu/nu mouse assessed as inhibition of tumor weight at 20 mg/kg, ip after 15 days; format: functional; conditions: 360 h, route intraperitoneal
MX1 [7] = test: Antitumor activity against human MX1 cells xenografted athymic nude Ncr nu/nu mouse assessed as inhibition of tumor volume at 10 ug/day, sc after 3 weeks; format: functional
MX1 [8] = test: Antitumor activity against human MX1 cells xenografted athymic nude Ncr nu/nu mouse assessed as inhibition of tumor weight at 10 ug/day, sc after 3 weeks; format: functional
Mus musculus [9] = test: Toxicity in human MX1 cells xenografted athymic nude Ncr nu/nu mouse assessed as body weight at 10 ug/day, sc after 24 days relative to control; format: organism-based; conditions: in vivo, 576 h

IC50 [2]: 0.14 nM | Bmax [4]: 278 fmol/mg | Kd [4]: 0.82 nM
Structure (SMILES): CC(=O)O[C@@]12CO[C@@H]1C[C@H](O)[C@@]1(C)C(=O)[C@H](O)C3=C(C)[C@@H](OC(=O)[C@H](O)[C@@H](NC(=O)OC(C)(C)C)c4ccccc4)C[C@@](O)([C@@H](OC(=O)c4ccccc4)[C@H]21)C3(C)C.O.O.O [DOCETAXEL]
inhibition in vivo at 20 mg/kg (MX1 [1]): 74.1% | Activity (Mus musculus [3]): 24 g | inhibition in vivo at 20 mg/kg (MX1 [5]): 29% | inhibition in vivo at 20 mg/kg (MX1 [6]): 58.6%

Structure (SMILES): CCCC[C@H](NC(=O)[C@@H](NC(=O)[C@H](CC(=O)O)NC(=O)[C@H](CCC(N)=O)NC(=O)[C@H](CC(C)C)NC(=O)[C@H](CC(C)C)NC(=O)[C@H](CCCCN)NC(=O)[C@H](Cc1cnc[nH]1)NC(=O)[C@H](C)NC(=O)[C@H](CO)NC(=O)[C@H](CC(C)C)NC(=O)[C@H](CCC(N)=O)NC(=O)[C@H](CC)NC(=O)[C@H](CC(C)C)NC(=O)[C@@H](NC(=O)[C@H](CCCCN)NC(=O)[C@H](Cc1cnc[nH]1)NC(=O)[C@H](Cc1ccc(OC)cc1)NC(=O)[C@H](CCCCNC(=N)N)NC(=O)[C@H](C)NC(=O)[C@@H](NC(=O)[C@H](Cc1ccc(Cl)cc1)NC(=O)[C@@H](NC(=O)[C@H](C)NC(=O)[C@H](CC(=O)O)NC(=O)[C@@H](CCCNC(=N)N)NC(=O)[C@H](Cc1ccc(O)cc1)NC(=O)Cc1ccccc1)[C@@H](C)CC)[C@@H](C)O)C(C)C)[C@@H](C)CC)C(=O)N[C@H](CCCNC(=N)N)C(=O)N[C@@H](CCCCNC(=N)N)C(N)=O [listing 1 of 2 here]
Inhibition (MX1 [7]): 62.9% | Inhibition (MX1 [8]): 47.8%

Bmax [4]: 92.4 fmol/mg | Kd [4]: 0.94 nM | inhibition ([4]; concentration not given here): 68%
Structure (SMILES): CC[C@H](NC(=O)[C@H](CC(C)C)NC(=O)[C@@H](NC(=O)[C@H](CCCCN)NC(=O)[C@H](Cc1cnc[nH]1)NC(=O)[C@H](Cc1ccc(C)cc1)NC(=O)[C@H](CCCCNC(=N)N)NC(=O)[C@H](C)NC(=O)[C@@H](NC(=O)[C@H](Cc1ccc(Cl)cc1)NC(=O)[C@@H](NC(=O)[C@H](C)NC(=O)[C@H](CC(=O)O)NC(=O)[C@@H](CCCNC(=N)N)NC(=O)[C@H](Cc1ccc(O)cc1)NC(=O)Cc1ccccc1)[C@@H](C)CC)[C@@H](C)O)C(C)C)C(=O)N[C@@H](CCC(N)=O)C(=O)N[C@@H](CC(C)C)C(=O)N[C@@H](CO)C(=O)N[C@@H](C)C(=O)N[C@@H](Cc1cnc[nH]1)C(=O)N[C@@H](CCCCN)C(=O)N[C@@H](CC(C)C)C(=O)N[C@@H](CC(C)C)C(=O)N[C@@H](CCC(N)=O)C(=O)N[C@@H](CC(=O)O)C(=O)N[C@H](C(=O)N[C@H](C(=O)N[C@H](CCCNC(=N)N)C(=O)N[C@@H](CCCCNC(=N)N)C(N)=O)[C@@H](C)CC)[C@@H](C)CC

Structure (SMILES): CCCC[C@H](NC(=O)[C@@H](NC(=O)[C@H](CC(=O)O)NC(=O)[C@H](CCC(N)=O)NC(=O)[C@H](CC(C)C)NC(=O)[C@H](CC(C)C)NC(=O)[C@H](CCCCN)NC(=O)[C@H](Cc1cnc[nH]1)NC(=O)[C@H](C)NC(=O)[C@H](CO)NC(=O)[C@H](CC(C)C)NC(=O)[C@H](CCC(N)=O)NC(=O)[C@H](CC)NC(=O)[C@H](CC(C)C)NC(=O)[C@@H](NC(=O)[C@H](CCCCN)NC(=O)[C@H](Cc1cnc[nH]1)NC(=O)[C@H](Cc1ccc(OC)cc1)NC(=O)[C@H](CCCCNC(=N)N)NC(=O)[C@H](C)NC(=O)[C@@H](NC(=O)[C@H](Cc1ccc(Cl)cc1)NC(=O)[C@@H](NC(=O)[C@H](C)NC(=O)[C@H](CC(=O)O)NC(=O)[C@@H](CCCNC(=N)N)NC(=O)[C@H](Cc1ccc(O)cc1)NC(=O)Cc1ccccc1)[C@@H](C)CC)[C@@H](C)O)C(C)C)[C@@H](C)CC)C(=O)N[C@H](CCCNC(=N)N)C(=O)N[C@@H](CCCCNC(=N)N)C(N)=O [listing 2 of 2 here]
Activity (Mus musculus [9]): 24.6 g
